ChEMBL document CHEMBL4342480, “Design of Dual Inhibitors of Soluble Epoxide Hydrolase and LTA4 Hydrolase” (ACS Med Chem Lett, 2020)

Experiments:
Type in all cases: functional
[1] = tested on: Macrophage; assay: Antiinflammatory activity in Escherichia coli O6:K2:H1-induced human M2 macrophage assessed as change in 5-HETE level at 1 uM preincubated for 10 mins followed by Escherichia coli O6:K2:H1-stimulation and measured after 180 mins by UPLC-MS/MS analysis relative to control
[2] = tested on: Macrophage; assay: Antiinflammatory activity in Escherichia coli O6:K2:H1-induced human M2 macrophage assessed as change in […] level at 1 uM preincubated for 10 mins followed by Escherichia coli O6:K2:H1-stimulation and measured after 180 mins by UPLC-MS/MS analysis relative to control
[3] = tested on: Macrophage; assay: Antiinflammatory activity in Escherichia coli O6:K2:H1-induced human M1 macrophage assessed as change in 5-HETE level at 1 uM preincubated for 10 mins followed by Escherichia coli O6:K2:H1-stimulation and measured after 180 mins by UPLC-MS/MS analysis relative to control
[4] = tested on: Macrophage; assay: Antiinflammatory activity in Escherichia coli O6:K2:H1-induced human M1 macrophage assessed as change in 5-HEPE level at 10 uM preincubated for 10 mins followed by Escherichia coli O6:K2:H1-stimulation and measured after 180 mins by UPLC-MS/MS analysis relative to control
[5] = tested on: Macrophage; assay: Antiinflammatory activity in Escherichia coli O6:K2:H1-induced human M2 macrophage assessed as change in 5-HEPE level at 1 uM preincubated for 10 mins followed by Escherichia coli O6:K2:H1-stimulation and measured after 180 mins by UPLC-MS/MS analysis relative to control
[6] = tested on: Macrophage; assay: Antiinflammatory activity in Escherichia coli O6:K2:H1-induced human M1 macrophage assessed as change in 18-HEPE level at 10 uM preincubated for 10 mins followed by Escherichia coli O6:K2:H1-stimulation and measured after 180 mins by UPLC-MS/MS analysis relative to control
[7] = tested on: Macrophage; assay: Antiinflammatory activity in Escherichia coli O6:K2:H1-induced human M2 macrophage assessed as change in […] level at 10 uM preincubated for 10 mins followed by Escherichia coli O6:K2:H1-stimulation and measured after 180 mins by UPLC-MS/MS analysis relative to control
[8] = tested on: Macrophage; assay: Antiinflammatory activity in Escherichia coli O6:K2:H1-induced human M1 macrophage assessed as change in PGD2 level at 1 uM preincubated for 10 mins followed by Escherichia coli O6:K2:H1-stimulation and measured after 180 mins by UPLC-MS/MS analysis relative to control
[9] = tested on: Macrophage; assay: Antiinflammatory activity in Escherichia coli O6:K2:H1-induced human M2 macrophage assessed as change in 7-HDHA level at 1 uM preincubated for 10 mins followed by Escherichia coli O6:K2:H1-stimulation and measured after 180 mins by UPLC-MS/MS analysis relative to control
[10] = tested on: Macrophage; assay: Antiinflammatory activity in Escherichia coli O6:K2:H1-induced human M2 macrophage assessed as change in 4-HDHA level at 10 uM preincubated for 10 mins followed by Escherichia coli O6:K2:H1-stimulation and measured after 180 mins by UPLC-MS/MS analysis relative to control
[11] = tested on: Macrophage; assay: Antiinflammatory activity in Escherichia coli O6:K2:H1-induced human M1 macrophage assessed as change in 5-HEPE level at 1 uM preincubated for 10 mins followed by Escherichia coli O6:K2:H1-stimulation and measured after 180 mins by UPLC-MS/MS analysis relative to control
[12] = tested on: Macrophage; assay: Antiinflammatory activity in Escherichia coli O6:K2:H1-induced human M1 macrophage assessed as change in PGF2alpha level at 1 uM preincubated for 10 mins followed by Escherichia coli O6:K2:H1-stimulation and measured after 180 mins by UPLC-MS/MS analysis relative to control
[13] = tested on: Macrophage; assay: Antiinflammatory activity in Escherichia coli O6:K2:H1-induced human M1 macrophage assessed as change in 12-HEPE level at 1 uM preincubated for 10 mins followed by Escherichia coli O6:K2:H1-stimulation and measured after 180 mins by UPLC-MS/MS analysis relative to control
[14] = tested on: Macrophage; assay: Antiinflammatory activity in Escherichia coli O6:K2:H1-induced human M1 macrophage assessed as change in 12-HEPE level at 10 uM preincubated for 10 mins followed by Escherichia coli O6:K2:H1-stimulation and measured after 180 mins by UPLC-MS/MS analysis relative to control
[15] = tested on: Macrophage; assay: Antiinflammatory activity in Escherichia coli O6:K2:H1-induced human M1 macrophage assessed as change in 12-HETE level at 10 uM preincubated for 10 mins followed by Escherichia coli O6:K2:H1-stimulation and measured after 180 mins by UPLC-MS/MS analysis relative to control
[16] = tested on: Macrophage; assay: Antiinflammatory activity in Escherichia coli O6:K2:H1-induced human M2 macrophage assessed as change in 15-HETE level at 1 uM preincubated for 10 mins followed by Escherichia coli O6:K2:H1-stimulation and measured after 180 mins by UPLC-MS/MS analysis relative to control
[17] = tested on: Macrophage; assay: Antiinflammatory activity in Escherichia coli O6:K2:H1-induced human M1 macrophage assessed as change in 12-HETE level at 1 uM preincubated for 10 mins followed by Escherichia coli O6:K2:H1-stimulation and measured after 180 mins by UPLC-MS/MS analysis relative to control
[18] = tested on: Macrophage; assay: Antiinflammatory activity in Escherichia coli O6:K2:H1-induced human M1 macrophage assessed as change in PGE2 level at 1 uM preincubated for 10 mins followed by Escherichia coli O6:K2:H1-stimulation and measured after 180 mins by UPLC-MS/MS analysis relative to control
[19] = tested on: Macrophage; assay: Antiinflammatory activity in Escherichia coli O6:K2:H1-induced human M1 macrophage assessed as change in 17-HDHA level at 10 uM preincubated for 10 mins followed by Escherichia coli O6:K2:H1-stimulation and measured after 180 mins by UPLC-MS/MS analysis relative to control

O=C(Cc1ccc(Oc2nc3ccccc3s2)cc1F)NCCc1ccc(F)cc1 was tested, and the Activity [1] was 68%, the Activity [2] was 64% and the Activity [3] was 164%. The Activity [4] was 65%, the Activity [5] was 93% and the Activity [6] was 73%. It also gave an Activity [7] of 26%, an Activity [8] of 127% and an Activity [9] of 94%. It also gave an Activity [10] of 78%, an Activity [11] of 102% and an Activity [12] of 94%. For the same molecule, the Activity [13] was 95%, the Activity [14] was 113% and the Activity [15] was 131%. For the same molecule, the Activity [16] was 82%, the Activity [17] was 99% and the Activity [18] was 109%. For the same molecule, the Activity [19] was 269%.
